Columns and labels:
[1] = target: T1, EPHB6 (Homo sapiens, UniProt O15197); test: KinomeScan; assay type: binding; conditions: read-out: % Control
T1 construct: purchased DiscoveRx (Fremont, CA)

[2] = target: T2, ERK2 (Homo sapiens, UniProt P28482); test: KinomeScan; assay type: binding; conditions: read-out: % Control
T2 construct: purchased DiscoveRx (Fremont, CA)

[3] = system: FLT3(ITD); test: KinomeScan; assay type: binding; conditions: 10 uM
[4] = target: T3, LIMK2 (Homo sapiens, UniProt P53671); test: KinomeScan; assay type: binding; conditions: read-out: % Control
T3 construct: purchased DiscoveRx

[5] = target: T4, TESK1 (Homo sapiens, UniProt Q15569); test: KinomeScan; assay type: binding; conditions: read-out: % Control
T4 construct: purchased DiscoveRx (Fremont, CA)

[6] = target: T5, TYRO3 (Homo sapiens, UniProt Q06418); test: KinomeScan; assay type: binding; conditions: read-out: % Control
T5 construct: purchased DiscoveRx

[7] = target: T6, ULK3 (Homo sapiens, UniProt Q6PHR2); test: KinomeScan; assay type: binding; conditions: read-out: % Control
T6 construct: purchased DiscoveRx

[8] = target: T7, Ghrelin (Homo sapiens, UniProt Q92847); test: GPCR Profiler; assay type: cell-based
T7 construct: host or cells: Chem-1 cells expressing Gα15

[9] = target: T8, MCHR1 (Homo sapiens, UniProt Q99705); test: GPCR Profiler; assay type: cell-based; conditions: 12.5 uM
T8 construct: host or cells: Chem-1 cells with promiscuous Gα15

[10] = system: U87 glioblastoma cells; test: Acid-induced calcium flux in U87 cells; assay type: cell-based, human; conditions: medium shifted from pH 7.8 to 6.4
Text: GPR68 is known to signal through Gq which results in a calcium flux out of the Endoplasmic reticulum. U87 glioblastoma cells were stained, using a calcium-sensitive vital dye Fluo-8, and stimulated with acidification of the media to pH6.4. The cells respond to the acidification with a burst of calcium release, this is inhibited by OGM2.
To determine if GBM cells respond to their own acidic extracellular milieu as a form of autocrine signaling, calcium release in response to acidification was measured. GPR68 is known to couple to the Gq subunit, which acts to release calcium from the ER in a PLC dependent pathway. The medium was shifted from pH 7.8 to 6.4, which triggered a rapid and robust calcium flux, as measured by the fluorescence intensity of calcium-sensitive dye Cal520-AM. This calcium flux was blocked by OGM2 and PLC inhibitor U73122. FIG. 50A, FIG. 50B, FIG. 50C and FIG. 50D.

[11] = system: U87; test: Western blot (TFRC, HO-1, cleaved caspase 3); assay type: cell-based, human
Experimental: Using Pierce™ BCA Protein Assay Kit (ThermoFisher Scientific™), protein concentrations were determined for each sample following manufacturing protocol. Gel electrophoresis was conducted on NuPAGE™ 4-12% Bis-Tris gels (Invitrogen™) using 20 ug of total protein per sample. Proteins were transferred to PVDF membranes by semi-dry transfer. Membranes were blocked using Intercept® (PBS) Blocking Buffer (LI-COR™) for one hour at room temperature on a tilting shaker. Primary antibodies in 5% non-fat dry milk were added to the membranes for overnight incubation at 4° C. on a rotating shaker. Primary antibodies included transferrin receptor (TFRC), heme-oxygenase 1 (HO-1), and cleaved caspase 3 with GAPDH and α-tubulin used as normalization controls. The next day, membranes were washed in three, five-minute intervals with PBST (Tween 0.5%). Corresponding secondary HRP-conjugated antibodies in 5% non-fat dry milk were added to incubate at room temperature for one hour on a tilting shaker. The membranes were washed with PBST in four, five-minute intervals before protein visualization using Radiance Q (Azure Biosystems™) on Bio-Rad™ ChemiDoc™ MP Imaging System. Protein quantification was completed in triplicate using Fiji software package.

T7 sequence (Q92847 whole entry): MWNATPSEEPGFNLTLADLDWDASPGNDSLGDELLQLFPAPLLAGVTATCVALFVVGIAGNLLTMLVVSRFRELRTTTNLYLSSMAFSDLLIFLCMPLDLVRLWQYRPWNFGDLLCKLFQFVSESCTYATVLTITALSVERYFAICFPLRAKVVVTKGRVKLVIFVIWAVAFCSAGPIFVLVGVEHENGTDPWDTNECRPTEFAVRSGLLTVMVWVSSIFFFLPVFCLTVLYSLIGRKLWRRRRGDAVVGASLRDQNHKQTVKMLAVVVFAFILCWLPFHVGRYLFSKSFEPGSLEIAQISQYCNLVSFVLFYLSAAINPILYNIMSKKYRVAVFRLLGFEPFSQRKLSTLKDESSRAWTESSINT
T1 sequence (O15197 32-1021): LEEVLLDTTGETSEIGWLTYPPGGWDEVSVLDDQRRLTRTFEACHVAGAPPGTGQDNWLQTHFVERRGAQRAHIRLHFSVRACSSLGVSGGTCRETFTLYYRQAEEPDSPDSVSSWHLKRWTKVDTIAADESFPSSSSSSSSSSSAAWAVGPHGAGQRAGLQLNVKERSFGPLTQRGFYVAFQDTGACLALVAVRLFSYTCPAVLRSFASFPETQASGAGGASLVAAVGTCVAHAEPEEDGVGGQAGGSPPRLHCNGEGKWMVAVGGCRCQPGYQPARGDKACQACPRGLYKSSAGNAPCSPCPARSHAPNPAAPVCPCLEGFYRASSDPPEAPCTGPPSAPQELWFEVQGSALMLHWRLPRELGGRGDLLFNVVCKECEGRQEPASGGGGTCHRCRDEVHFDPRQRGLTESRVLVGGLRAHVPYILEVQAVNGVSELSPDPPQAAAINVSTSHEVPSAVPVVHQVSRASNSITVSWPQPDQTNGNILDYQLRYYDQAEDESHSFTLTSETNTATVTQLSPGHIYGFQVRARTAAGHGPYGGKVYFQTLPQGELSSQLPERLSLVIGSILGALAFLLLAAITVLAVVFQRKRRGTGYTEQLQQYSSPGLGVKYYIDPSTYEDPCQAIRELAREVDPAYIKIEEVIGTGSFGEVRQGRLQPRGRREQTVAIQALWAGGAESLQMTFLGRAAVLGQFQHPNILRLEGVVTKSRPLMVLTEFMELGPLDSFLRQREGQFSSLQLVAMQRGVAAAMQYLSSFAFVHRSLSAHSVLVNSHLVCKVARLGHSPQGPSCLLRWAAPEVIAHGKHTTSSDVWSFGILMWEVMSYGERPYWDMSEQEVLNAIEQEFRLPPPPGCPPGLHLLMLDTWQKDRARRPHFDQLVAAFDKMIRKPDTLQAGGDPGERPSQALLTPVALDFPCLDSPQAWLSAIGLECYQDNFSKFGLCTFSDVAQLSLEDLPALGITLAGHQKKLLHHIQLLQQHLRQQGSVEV
T5 sequence (Q06418 41-890): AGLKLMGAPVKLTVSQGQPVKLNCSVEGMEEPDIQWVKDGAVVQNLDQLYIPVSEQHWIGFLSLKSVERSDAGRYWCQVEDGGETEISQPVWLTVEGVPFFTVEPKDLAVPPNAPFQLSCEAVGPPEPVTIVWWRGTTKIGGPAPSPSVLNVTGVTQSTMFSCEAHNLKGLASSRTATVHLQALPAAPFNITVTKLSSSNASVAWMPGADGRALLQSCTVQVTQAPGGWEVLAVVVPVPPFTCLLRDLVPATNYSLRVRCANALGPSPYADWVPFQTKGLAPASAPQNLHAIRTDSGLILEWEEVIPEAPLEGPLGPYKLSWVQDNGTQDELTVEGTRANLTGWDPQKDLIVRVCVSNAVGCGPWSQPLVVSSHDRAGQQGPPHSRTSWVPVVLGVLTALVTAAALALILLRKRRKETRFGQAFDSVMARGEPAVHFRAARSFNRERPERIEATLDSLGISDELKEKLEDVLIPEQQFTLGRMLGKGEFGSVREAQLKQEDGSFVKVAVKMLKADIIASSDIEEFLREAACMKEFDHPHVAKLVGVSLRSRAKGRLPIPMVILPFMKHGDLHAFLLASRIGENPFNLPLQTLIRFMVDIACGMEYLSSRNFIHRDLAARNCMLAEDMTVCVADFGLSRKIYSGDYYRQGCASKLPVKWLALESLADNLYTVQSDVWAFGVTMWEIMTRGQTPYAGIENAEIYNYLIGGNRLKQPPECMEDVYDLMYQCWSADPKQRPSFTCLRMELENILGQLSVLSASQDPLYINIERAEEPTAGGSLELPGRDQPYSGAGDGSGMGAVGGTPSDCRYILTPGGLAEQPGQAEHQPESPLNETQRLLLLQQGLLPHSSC
T2 sequence (P28482 whole entry): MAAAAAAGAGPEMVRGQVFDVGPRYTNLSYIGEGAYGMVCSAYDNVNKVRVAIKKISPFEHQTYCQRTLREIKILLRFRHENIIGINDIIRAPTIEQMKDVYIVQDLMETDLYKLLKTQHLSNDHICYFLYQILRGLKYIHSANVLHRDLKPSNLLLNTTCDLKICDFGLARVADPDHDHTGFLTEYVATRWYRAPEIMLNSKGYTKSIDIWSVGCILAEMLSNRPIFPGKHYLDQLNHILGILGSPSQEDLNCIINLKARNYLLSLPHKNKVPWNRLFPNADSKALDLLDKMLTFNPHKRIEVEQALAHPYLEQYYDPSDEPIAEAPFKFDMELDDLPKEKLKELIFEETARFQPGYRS
T6 sequence (Q6PHR2 whole entry): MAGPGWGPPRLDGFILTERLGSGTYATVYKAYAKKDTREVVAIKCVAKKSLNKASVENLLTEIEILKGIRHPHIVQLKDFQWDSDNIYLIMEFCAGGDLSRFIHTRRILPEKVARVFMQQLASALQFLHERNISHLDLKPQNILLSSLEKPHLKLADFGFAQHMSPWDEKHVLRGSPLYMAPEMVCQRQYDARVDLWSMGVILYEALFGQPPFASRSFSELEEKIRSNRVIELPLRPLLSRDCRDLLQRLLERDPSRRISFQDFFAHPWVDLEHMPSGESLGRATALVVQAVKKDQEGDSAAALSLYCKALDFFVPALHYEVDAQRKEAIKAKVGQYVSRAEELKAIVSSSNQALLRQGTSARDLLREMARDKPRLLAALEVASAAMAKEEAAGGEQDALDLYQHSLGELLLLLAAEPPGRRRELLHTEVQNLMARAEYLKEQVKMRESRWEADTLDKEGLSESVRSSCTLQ
T3 sequence (P53671 whole entry): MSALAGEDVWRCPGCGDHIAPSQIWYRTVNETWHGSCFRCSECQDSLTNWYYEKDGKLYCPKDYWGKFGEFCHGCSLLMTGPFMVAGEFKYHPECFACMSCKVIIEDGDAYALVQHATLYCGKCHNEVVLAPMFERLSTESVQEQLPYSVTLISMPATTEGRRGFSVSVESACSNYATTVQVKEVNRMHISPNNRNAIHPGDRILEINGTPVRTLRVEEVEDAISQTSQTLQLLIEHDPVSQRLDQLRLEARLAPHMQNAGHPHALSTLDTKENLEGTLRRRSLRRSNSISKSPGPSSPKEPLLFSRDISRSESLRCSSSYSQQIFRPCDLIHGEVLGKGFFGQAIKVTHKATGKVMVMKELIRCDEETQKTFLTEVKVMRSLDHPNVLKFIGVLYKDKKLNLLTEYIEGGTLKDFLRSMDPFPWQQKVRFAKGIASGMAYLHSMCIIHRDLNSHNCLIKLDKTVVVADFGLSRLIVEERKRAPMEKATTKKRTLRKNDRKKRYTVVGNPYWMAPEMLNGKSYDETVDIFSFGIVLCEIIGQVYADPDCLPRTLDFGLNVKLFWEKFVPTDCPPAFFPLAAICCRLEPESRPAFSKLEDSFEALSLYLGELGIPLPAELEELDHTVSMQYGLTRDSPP
T4 sequence (Q15569 whole entry): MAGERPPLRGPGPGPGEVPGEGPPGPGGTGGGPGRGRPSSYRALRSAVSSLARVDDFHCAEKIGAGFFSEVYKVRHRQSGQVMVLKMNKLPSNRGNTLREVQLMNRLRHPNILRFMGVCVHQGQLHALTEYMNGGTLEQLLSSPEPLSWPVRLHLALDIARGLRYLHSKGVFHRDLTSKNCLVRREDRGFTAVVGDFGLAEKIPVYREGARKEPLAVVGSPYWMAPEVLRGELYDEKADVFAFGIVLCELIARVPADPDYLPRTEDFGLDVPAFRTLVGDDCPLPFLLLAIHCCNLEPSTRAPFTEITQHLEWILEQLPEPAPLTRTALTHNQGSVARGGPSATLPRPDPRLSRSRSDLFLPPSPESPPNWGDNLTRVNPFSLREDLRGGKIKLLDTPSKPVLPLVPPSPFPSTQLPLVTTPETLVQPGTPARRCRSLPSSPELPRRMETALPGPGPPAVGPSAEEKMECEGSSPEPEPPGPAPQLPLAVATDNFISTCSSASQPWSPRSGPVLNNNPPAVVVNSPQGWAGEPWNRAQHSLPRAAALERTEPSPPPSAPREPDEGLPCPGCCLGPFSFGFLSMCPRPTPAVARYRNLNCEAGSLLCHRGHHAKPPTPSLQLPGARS
T8 sequence (Q99705 whole entry, species assumed): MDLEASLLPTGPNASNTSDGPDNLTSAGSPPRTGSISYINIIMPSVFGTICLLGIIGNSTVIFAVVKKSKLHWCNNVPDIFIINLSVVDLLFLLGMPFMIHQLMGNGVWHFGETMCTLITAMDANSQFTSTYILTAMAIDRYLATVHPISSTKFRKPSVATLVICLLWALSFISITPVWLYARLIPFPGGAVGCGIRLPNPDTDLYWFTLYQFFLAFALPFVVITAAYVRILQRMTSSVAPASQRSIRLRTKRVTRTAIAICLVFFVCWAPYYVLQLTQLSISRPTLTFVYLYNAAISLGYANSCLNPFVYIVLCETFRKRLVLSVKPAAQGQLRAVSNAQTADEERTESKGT

SMILES	remaining binding at 10 µM [1]	remaining binding at 10 µM [2]	% Control [3]	remaining binding at 10 µM [4]	remaining binding at 10 µM [5]	remaining binding at 10 µM [6]	remaining binding at 10 µM [7]	Antagonism ([8]; 10 uM)	Agonism ([8]; 12.5 uM)	Agonism [9]	acid-induced calcium flux [10]	cleaved caspase 3 level [11]	protein levels of TFRC and HO-1 [11]
CCc1ccc2c(c1)C1(NN=C(c3cccc4ccccc34)S1)C(=O)N2 (stereo not shown) [OGM1, 5-ethyl-5′-naphthalen-1-ylspiro[1H-indole-3,2′-3H-1,3,4-thiadiazole]-2-one]	76%	77%	100%	100%	100%	100%	100%	−6.1	0.3	−0.4			
CCc1ccc2c(c1)C1(NN=C(c3ccccc3)S1)C(=O)N2 (stereo not shown) [OGM2]											blocked	did not increase	significantly increased
